# Key:
# [1] = tested on: C57Bl/6J mice on a high-fat diet; settings: cited from earlier work
# recombinant Nampt = recombinant Nampt (Homo sapiens, UniProt P43490); assay: Recombinant Nampt enzymatic activity assay; settings: enzyme assay with recombinant Nampt
# PI3K = assay: Ex vivo ischemia reperfusion with PI3K inhibitor LY294002, pAKT Western blot; set-up: species or system mice; settings: WT hearts; LY294002 15 μM prior to global ischemia
# recombinant Nampt, sequence (P43490 whole entry, the tested form may be a part): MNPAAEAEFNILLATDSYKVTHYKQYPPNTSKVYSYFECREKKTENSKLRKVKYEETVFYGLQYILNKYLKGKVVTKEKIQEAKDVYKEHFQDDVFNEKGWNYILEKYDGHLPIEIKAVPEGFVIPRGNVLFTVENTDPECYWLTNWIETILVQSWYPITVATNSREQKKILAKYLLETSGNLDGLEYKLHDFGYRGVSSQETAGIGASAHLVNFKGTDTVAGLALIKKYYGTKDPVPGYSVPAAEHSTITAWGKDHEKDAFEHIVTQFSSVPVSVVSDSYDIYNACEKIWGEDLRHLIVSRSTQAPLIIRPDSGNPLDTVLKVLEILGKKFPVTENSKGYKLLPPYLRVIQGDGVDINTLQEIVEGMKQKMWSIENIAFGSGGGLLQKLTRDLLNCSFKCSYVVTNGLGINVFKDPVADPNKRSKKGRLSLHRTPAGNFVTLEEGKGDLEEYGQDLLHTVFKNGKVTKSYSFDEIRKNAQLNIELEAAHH
smiles,measurement,setting,value
COc1cccc(NCC(F)Cn2c3ccc(Br)cc3c3cc(Br)ccc32)c1 (stereo not drawn) [P7C3 A20],fatty liver syndrome,[1],rescued
O=C(/C=C/c1cccnc1)NCCCCC1CCN(C(=O)c2ccccc2)CC1 [FK866],Nampt activity,recombinant Nampt,significantly decreased
"Cl.O=c1cc(N2CCOCC2)oc2c(-c3ccccc3)cccc12 [LY294002, 2-(4-Morpholinyl)-8-phenyl-1(4H)-benzopyran−4-one hydrochloride]",P7C3 based pAkt expression,PI3K,attenuated

# — patent US20220370636A1, “NICOTINAMIDE ADENINE DINUCLEOTIDE ACTIVATOR AND USE THEREOF” (University of South Florida, priority 2021, published 2022)
